# Source: PubChem BioAssay (NCI)
#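 Tested at 5 concentrations; 48 h exposure; 96-well plates; endpoints linearly interpolated, else capped at highest concentration. Definition used: TGI = concentration required for complete inhibition of growth.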
# How the values were obtained:
# Assay in all cases: NCI-60 cell line screen, 48 h
# [1] = system: RXF 393 renal
# [2] = system: SF-268 CNS
# [3] = system: SF-539 CNS
# [4] = system: NCI-H226 lung
# [5] = system: LXFL 529 NSCLC
# [6] = system: SNB-78 CNS
# [7] = system: KM20L2 colon
# [8] = system: UACC-257 melanoma
# [9] = system: MOLT-4 leukemia
# [10] = system: OVCAR-5 ovarian
# [11] = system: MALME-3M melanoma
# [12] = system: HT29 colon
# [13] = system: SNB-19 CNS
# [14] = system: XF 498 CNS
# [15] = system: SN12C renal
# [16] = system: HCT-15 colon
# [17] = system: MDA-MB-231 breast
# [18] = system: SK-MEL-2 melanoma
# [19] = system: SK-MEL-5 melanoma
# [20] = system: EKVX NSCLC
# [21] = system: HOP-62 NSCLC
# [22] = system: OVCAR-8 ovarian
# [23] = system: DU-145 prostate
# [24] = system: LOX IMVI melanoma
# [25] = system: UO-31 renal
# [26] = system: KM12 colon
# [27] = system: CCRF-CEM leukemia
# [28] = system: M14 melanoma
# [29] = system: NCI-H522 lung
# [30] = system: MCF7 breast
# [31] = system: TK-10 renal
# [32] = system: MDA-MB-435
# [33] = system: SW-620 colon
# [34] = system: IGROV1 ovarian
# [35] = system: 786-0 renal
# [36] = system: SK-OV-3 ovarian
# [37] = system: NCI/ADR-RES ovarian
# [38] = system: U251 CNS
# [39] = system: A498 renal
# [40] = system: BT-549 breast
# [41] = system: A549 NSCLC
# [42] = system: T-47D breast
# [43] = system: HOP-92 NSCLC
# [44] = system: SNB-75 CNS
# [45] = system: COLO 205 colon
# [46] = system: MDA-N
# [47] = system: RPMI-8226 leukemia
# [48] = system: SR leukemia
# [49] = system: UACC-62 melanoma
# [50] = system: CAKI-1 renal
# [51] = system: OVCAR-3 ovarian
# [52] = system: SF-295 CNS
# [53] = system: K-562 leukemia
# [54] = system: PC-3 prostate
# [55] = system: DMS 114 small cell lung
# [56] = system: NCI-H23 lung
# [57] = system: HS 578T breast
# [58] = system: NCI-H460 lung
# [59] = system: SK-MEL-28 melanoma
# [60] = system: ACHN renal
# [61] = system: HCC-2998 colon
# [62] = system: HCT-116 colon
# [63] = system: M19-MEL melanoma
# [64] = system: DLD-1 colon
# [65] = system: HL-60(TB) leukemia
# [66] = system: OVCAR-4 ovarian
# [67] = system: DMS 273 small cell lung
structure (smiles),measurement,setting,value
Cc1[nH]n(C(=O)c2ccccc2O)c(=O)c1/C=C1\C(=O)C=Cc2ccccc21,TGI,[1],18.8 µM
same,TGI,[2],31 µM
same,TGI,[3],3.35 µM
same,TGI,[4],8.57 µM
same,TGI,[5],42.4 µM
same,TGI,[6],98.8 µM
same,TGI,[7],75.6 µM
same,TGI,[8],26.6 µM
same,TGI,[9],> 100 µM
same,TGI,[10],> 64.9 µM
same,TGI,[11],16.5 µM
same,TGI,[12],> 81 µM
same,TGI,[13],64.3 µM
same,TGI,[14],29 µM
same,TGI,[15],13.6 µM
same,TGI,[16],> 100 µM
same,TGI,[17],26.8 µM
same,TGI,[18],17.2 µM
same,TGI,[19],4.26 µM
same,TGI,[20],19.4 µM
same,TGI,[21],6.64 µM
same,TGI,[22],28.5 µM
same,TGI,[23],48.6 µM
same,TGI,[24],8.79 µM
same,TGI,[25],13.2 µM
same,TGI,[26],> 74.1 µM
same,TGI,[27],> 36.4 µM
same,TGI,[28],4.63 µM
same,TGI,[29],15.1 µM
same,TGI,[30],15.1 µM
same,TGI,[31],> 100 µM
same,TGI,[32],79.7 µM
same,TGI,[33],> 100 µM
same,TGI,[34],11.5 µM
same,TGI,[35],10.1 µM
same,TGI,[36],22.1 µM
same,TGI,[37],11 µM
same,TGI,[38],40.7 µM
same,TGI,[39],11.2 µM
same,TGI,[40],73 µM
same,TGI,[41],38.5 µM
same,TGI,[42],> 100 µM
same,TGI,[43],28.7 µM
same,TGI,[44],10.4 µM
same,TGI,[45],13.1 µM
same,TGI,[46],> 100 µM
same,TGI,[47],31.1 µM
same,TGI,[48],> 100 µM
same,TGI,[49],2.36 µM
same,TGI,[50],6.64 µM
same,TGI,[51],1.2 µM
same,TGI,[52],26.4 µM
same,TGI,[53],> 44 µM
same,TGI,[54],23 µM
same,TGI,[55],0.801 µM
same,TGI,[56],9.99 µM
same,TGI,[57],> 100 µM
same,TGI,[58],9.94 µM
same,TGI,[59],71.6 µM
same,TGI,[60],12.8 µM
same,TGI,[61],> 71.7 µM
same,TGI,[62],> 45.5 µM
O=C(OCCOCCOC(=O)c1c[nH]cc1-c1ccccc1)c1c[nH]cc1-c1ccccc1,TGI,[63],34 µM
same,TGI,[1],35.6 µM
same,TGI,[2],40 µM
same,TGI,[3],32.5 µM
same,TGI,[4],48.9 µM
same,TGI,[5],69.2 µM
same,TGI,[6],68.7 µM
same,TGI,[7],46 µM
same,TGI,[8],33.1 µM
same,TGI,[9],49.1 µM
same,TGI,[10],62.2 µM
same,TGI,[11],55.2 µM
same,TGI,[12],35.2 µM
same,TGI,[13],69.9 µM
same,TGI,[14],34.4 µM
same,TGI,[15],42.1 µM
same,TGI,[16],38.5 µM
same,TGI,[19],30.5 µM
same,TGI,[20],69.9 µM
same,TGI,[21],31.7 µM
same,TGI,[22],84.7 µM
same,TGI,[64],71.4 µM
same,TGI,[24],30.2 µM
same,TGI,[25],31.4 µM
same,TGI,[26],44.7 µM
same,TGI,[27],> 100 µM
same,TGI,[28],28.2 µM
same,TGI,[29],29.6 µM
same,TGI,[31],80.1 µM
same,TGI,[65],55.1 µM
same,TGI,[33],76.5 µM
same,TGI,[34],42.5 µM
same,TGI,[35],73.1 µM
same,TGI,[36],84.4 µM
same,TGI,[38],36.7 µM
same,TGI,[39],53.1 µM
same,TGI,[41],66.4 µM
same,TGI,[43],47.8 µM
same,TGI,[44],36.7 µM
same,TGI,[45],35.6 µM
same,TGI,[47],56.9 µM
same,TGI,[48],55.6 µM
same,TGI,[49],31 µM
same,TGI,[50],83.1 µM
same,TGI,[51],50 µM
same,TGI,[66],49.7 µM
same,TGI,[52],35.7 µM
same,TGI,[53],> 100 µM
same,TGI,[55],32.5 µM
same,TGI,[56],33.7 µM
same,TGI,[58],46.9 µM
same,TGI,[67],30.6 µM
same,TGI,[61],42.4 µM
same,TGI,[62],31.6 µM
